Positions count from the first letter of the chain named.

Results on twelve compounds are retold here after patent publication US10160755B2 (Plexxikon Inc., priority 2015, dated 2018).

Assay [1] concerns the target T1, BA/F3-FLT3-ITD + F691L cells (Homo sapiens, UniProt P36888, F691L, cells depend on it, form not given).
T1 sequence (P36888 1-993 F691L): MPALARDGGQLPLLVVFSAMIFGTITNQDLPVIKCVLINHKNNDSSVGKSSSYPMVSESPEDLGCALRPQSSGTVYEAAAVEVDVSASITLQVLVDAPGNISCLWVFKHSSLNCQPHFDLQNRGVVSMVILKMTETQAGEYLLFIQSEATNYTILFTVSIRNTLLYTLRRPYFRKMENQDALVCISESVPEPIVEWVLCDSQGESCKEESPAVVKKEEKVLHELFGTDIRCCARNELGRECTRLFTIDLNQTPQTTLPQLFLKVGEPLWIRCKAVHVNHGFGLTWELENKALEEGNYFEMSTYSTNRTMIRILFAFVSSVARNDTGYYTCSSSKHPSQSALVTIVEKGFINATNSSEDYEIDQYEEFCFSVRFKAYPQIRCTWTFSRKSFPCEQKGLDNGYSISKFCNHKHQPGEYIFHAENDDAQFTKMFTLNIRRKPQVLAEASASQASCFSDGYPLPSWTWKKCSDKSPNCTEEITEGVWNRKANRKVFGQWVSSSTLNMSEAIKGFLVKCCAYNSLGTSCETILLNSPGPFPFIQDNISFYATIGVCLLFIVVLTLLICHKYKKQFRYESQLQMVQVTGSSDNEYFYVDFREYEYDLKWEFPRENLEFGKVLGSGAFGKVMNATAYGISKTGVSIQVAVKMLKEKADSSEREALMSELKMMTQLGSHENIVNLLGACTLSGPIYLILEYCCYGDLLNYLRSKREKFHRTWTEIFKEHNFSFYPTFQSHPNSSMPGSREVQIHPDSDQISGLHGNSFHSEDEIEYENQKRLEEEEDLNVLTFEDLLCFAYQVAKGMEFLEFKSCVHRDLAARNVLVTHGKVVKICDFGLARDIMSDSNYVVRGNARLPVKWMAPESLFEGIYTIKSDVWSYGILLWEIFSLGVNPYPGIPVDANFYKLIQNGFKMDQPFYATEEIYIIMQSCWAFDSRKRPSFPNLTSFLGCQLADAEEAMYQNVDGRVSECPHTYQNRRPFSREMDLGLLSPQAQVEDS
Nature of the assay: BA/F3-FLT3-ITD + F691L cell proliferation assay (CellTiter-Glo). The settings on record: BaF3 FLT3 ITD/F691L cells; read-out: Cell Activity (IC50 μM) BaF3_FLT3_ITD/F691L. It counts as cell-based, murine. An excerpt:
The FLT3 inhibitors may also be assessed using leukemia cell lines that express endogenous FLT3-ITD or cells that are engineered to express wild-type or mutant FLT3. The cells expressing endogenous FLT3 are dependent upon FLT3 catalytic activity for growth. For the engineered cells, murine BA/F3 cells were transfected with full-length FLT3 (either wild-type, or containing the ITD, D835Y, or F691L mutations, as noted). The parental BA/F3 cells are dependent upon Interleukin-3 (IL-3) for survival, and introduction of the FLT3 constructs renders these cells dependent upon FLT3 kinase activity when cultured in the absence of IL-3. Engineered BA/F3 cell growth assays can be performed in either the absence or presence of IL-3, to assess the compound inhibition of FLT3 or to detect the presence of off-target activity, respectively. Inhibitors of FLT3 kinase activity reduce or eliminate the FLT3 oncogenic signaling, resulting in reduced cell proliferation. This inhibition is measured as a function of compound concentration to assess IC50 values.
Cells were seeded at 1×10^4 cells per well of a 96 well cell culture plate in 50 μl of cell culture medium. Compounds were dissolved in DMSO, typically at a concentration of 5 mM and were serially diluted 1:3 for a total of eight points and added to the cells to final concentrations of 10, 3.3, 1.1, 0.37, 0.12, 0.041, 0.014 and 0.0046 μM in 100 μl cell culture medium (final concentration 0.2% DMSO). […] The cells were incubated at 37° C., 5% CO2 for three days. CellTiter-Glo Buffer (Promega Cell Viability Assay catalog #G7573) and substrate were equilibrated to room temperature, and enzyme/substrate Recombinant Firefly Luciferase/Beetle Luciferin was reconstituted. The cell plates were equilibrated to room temperature for 30 minutes, then lysed by addition of an equivalent volume of the Celltiter-Glo Reagent. The plate was mixed for 10 minutes on a plate shaker to lyse the cells. The plates were read on a Tecan M1000 using Luminescence protocol modified to read 0.1 s per well. The luminescence reading assesses the ATP content, which correlates directly with cell number such that the reading as a function of compound concentration was used to determine the IC50 value.

The target in the next assay is T2, FLT3-D835Y (Homo sapiens, UniProt P36888, D835Y).
T2 construct: purchased Invitrogen PV3967
T2 sequence (P36888 27-993 D835Y): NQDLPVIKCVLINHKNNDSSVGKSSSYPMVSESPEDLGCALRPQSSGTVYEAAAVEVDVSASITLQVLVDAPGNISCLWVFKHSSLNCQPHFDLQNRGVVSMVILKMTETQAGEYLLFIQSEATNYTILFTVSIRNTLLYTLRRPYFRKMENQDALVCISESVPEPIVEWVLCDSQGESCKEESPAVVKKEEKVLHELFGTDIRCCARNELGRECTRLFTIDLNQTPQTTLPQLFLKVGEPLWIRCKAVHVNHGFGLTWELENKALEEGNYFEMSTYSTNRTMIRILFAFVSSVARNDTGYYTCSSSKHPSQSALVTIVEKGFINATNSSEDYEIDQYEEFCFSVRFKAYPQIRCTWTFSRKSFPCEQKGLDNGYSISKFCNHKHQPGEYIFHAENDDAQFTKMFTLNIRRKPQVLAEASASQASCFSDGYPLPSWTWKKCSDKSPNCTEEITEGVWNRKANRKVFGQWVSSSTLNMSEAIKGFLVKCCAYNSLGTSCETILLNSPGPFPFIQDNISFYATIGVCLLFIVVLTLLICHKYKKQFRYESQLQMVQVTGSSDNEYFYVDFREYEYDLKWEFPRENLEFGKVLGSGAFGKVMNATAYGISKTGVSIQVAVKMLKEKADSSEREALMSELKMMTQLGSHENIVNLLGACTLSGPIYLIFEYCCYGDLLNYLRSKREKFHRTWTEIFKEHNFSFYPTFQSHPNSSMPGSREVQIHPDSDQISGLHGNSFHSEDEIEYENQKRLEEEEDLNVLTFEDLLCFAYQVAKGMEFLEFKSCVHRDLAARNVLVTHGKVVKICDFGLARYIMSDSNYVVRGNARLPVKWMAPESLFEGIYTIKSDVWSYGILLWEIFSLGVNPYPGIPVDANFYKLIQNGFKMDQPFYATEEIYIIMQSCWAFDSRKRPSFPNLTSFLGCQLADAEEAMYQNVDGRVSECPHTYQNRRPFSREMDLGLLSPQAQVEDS
Briefly: FLT3-D835Y biochemical kinase assay (AlphaScreen). The method, boiled down:
(§1)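 Recombinant kinase, biotin-GG(EEEEY)10EE 30 nM final, ATP 10 μM (D835Y) / 100 μM (ITD). Stop/detect: SA donor beads 20 min RT, then PY20 acceptor beads 60 min RT. AlphaScreen 580 nm signal; IC50.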
In general terms: Alpha assays give light when donor and acceptor beads are brought close together.

A further assay deals with T3, FLT3-ITD (Homo sapiens, UniProt P36888).
T3 construct: FLT3-ITD; Invitrogen #PV6190
T3 sequence (P36888 1-993): T1 sequence (P36888 1-993 F691L) with L691F
Nature of the assay: FLT3-ITD biochemical kinase assay (AlphaScreen). Put shortly:
as §1

Take `c1cc(-c2cnc3[nH]cc(-c4ccc5ncn(C6CCCNC6)c5c4)c3n2)cc(N2CCNCC2)n1` (stereo not drawn) [P-308, 2-(2-piperazin-1-yl-4-pyridyl)-7-[3-(3-piperidyl)benzimidazol-5-yl]-5H-pyrrolo[2,3-b]pyrazine]: the GI50 in assay [1] was in the range of 0.0001 to 1 µM. Moreover, the IC50 (in general, the concentration at which inhibition is half-maximal) against FLT3-D835Y was in the range of 0.0001 to 1 µM.

Consider `CC(C)(C)n1cnc2ccc(-c3c[nH]c4ncc(-c5ccc(S(=O)(=O)N6CCCC6)cc5)nc34)cc21` [P-239, 7-(3-tert-butylbenzimidazol-5-yl)-2-(4-pyrrolidin-1-ylsulfonylphenyl)-5H-pyrrolo[2,3-b]pyrazine], for which the IC50 on FLT3-D835Y and against FLT3-ITD was 0.0001 to 1 µM in each case.

For the compound `CC(C)N1CCOc2ccc(-c3c[nH]c4ncc(C5=CCN(C(=O)C6CC6)C5)nc34)cc21` [P-189, cyclopropyl-[3-[7-(4-isopropyl-2,3-dihydro-1,4-benzoxazin-6-yl)-5H-pyrrolo[2,3-b]pyrazin-2-yl]-2,5-dihydropyrrol-1-yl]methanone], the IC50 against FLT3-D835Y and on FLT3-ITD was 0.0001 to 1 µM throughout.

Take `COc1cc(-c2cnc3[nH]cc(-c4ccc5ncn(C6CCCC6)c5c4)c3n2)ccn1` [P-114, 7-(3-cyclopentylbenzimidazol-5-yl)-2-(2-methoxy-4-pyridyl)-5H-pyrrolo[2,3-b]pyrazine]: the IC50 against FLT3-D835Y and against FLT3-ITD was 0.0001 to 1 µM each time.

With `CC(C)(C)n1cnc2ccc(-c3c[nH]c4ncc(-c5cnc(C6CC6)nc5)nc34)cc21` [P-342, 7-(3-tert-butylbenzimidazol-5-yl)-2-(2-cyclopropylpyrimidin-5-yl)-5H-pyrrolo[2,3-b]pyrazine], the IC50 on FLT3-D835Y and against FLT3-ITD was 0.0001 to 1 µM each time.

As to `COc1cc(-c2cnc3[nH]cc(-c4ccc5ncn(C6CCCNC6)c5c4)c3n2)ccn1` (stereo not drawn) [P-136, 2-(2-methoxypyridin-4-yl)-7-(1-(piperidin-3-yl)-1H-benzo[d]imidazol-6-yl)-5H-pyrrolo[2,3-b]pyrazine], the IC50 against FLT3-D835Y and on FLT3-ITD was 0.0001 to 1 µM throughout.

In the case of `Cn1cnc2ccc(-c3c[nH]c4ncc(-c5cccc(N6CCCS6(=O)=O)c5)nc34)cc21` [P-153, 2-[3-[7-(3-methylbenzimidazol-5-yl)-5H-pyrrolo[2,3-b]pyrazin-2-yl]phenyl]-1,2-thiazolidine 1,1-dioxide], the IC50 against FLT3-D835Y and against FLT3-ITD was 0.0001 to 1 µM each time.

`COc1cc(-c2cnc3[nH]cc(-c4ccc5ncn(C6CCCNC6)c5c4)c3c2)cc(OC)n1` (stereo not drawn) [P-197, 5-(2,6-dimethoxy-4-pyridyl)-3-[3-(3-piperidyl)benzimidazol-5-yl]-1H-pyrrolo[2,3-b]pyridine]: the IC50 at FLT3-D835Y and against FLT3-ITD was 0.0001 to 1 µM throughout.

Take `COc1cc(-c2cnc3[nH]cc(-c4ccc5ncn(CC(F)(F)F)c5c4)c3c2)ccn1` [P-108, 5-(2-methoxy-4-pyridyl)-3-[3-(2,2,2-trifluoroethyl)benzimidazol-5-yl]-1H-pyrrolo[2,3-b]pyridine]: the IC50 on FLT3-D835Y and at FLT3-ITD was 0.0001 to 1 µM in each case.

On to `Cn1cnc2ccc(-c3c[nH]c4ncc(-c5cccc(C(=O)NC6CC6)c5)nc34)cc21` [P-147, N-cyclopropyl-3-[7-(3-methylbenzimidazol-5-yl)-5H-pyrrolo[2,3-b]pyrazin-2-yl]benzamide], for which the IC50 against FLT3-D835Y and against FLT3-ITD was 0.0001 to 1 µM throughout.

Consider `O=C(C1CC1)N1CC=C(c2cnc3[nH]cc(-c4ccc5c(c4)N(CC(F)(F)F)CCO5)c3n2)C1` [P-190], for which the IC50 against FLT3-D835Y and against FLT3-ITD was 0.0001 to 1 µM in each case.

For the compound `COc1cccc(-c2cnc3[nH]cc(-c4ccc5ncn(C)c5c4)c3n2)c1` [P-145, 2-(3-methoxyphenyl)-7-(3-methylbenzimidazol-5-yl)-5H-pyrrolo[2,3-b]pyrazine], the IC50 at FLT3-D835Y and against FLT3-ITD was 0.0001 to 1 µM throughout.
